Measurements reported in patent US8470765B2, “Polypeptides and antibacterial or antiseptic use of same” (AnGes MG, Inc., priority 2009, dated 2013).
Where two headings read alike, the source gives them in different places. No end group written: not given here.

Experiments:
[1] = tested on: Escherichia coli ATCC 25922; test: microbe, parasite or virus in culture; type: cell-based
Method: (§1) Bacteria (Escherichia coli ATCC 25922, Pseudomonas aeruginosa ATCC 27853, Staphylococcus aureus ATCC29213, Klebsiella pneumoniae JCM 1662, Enterobacter cloacae JCM 1232, Enterobacter aerogenes JCM 1235 and Staphylococcus epidermidis JCM 2414) were inoculated to Mueller-Hinton broth: MHB or LB medium, and cultured at a temperature and period suited for each strain. From the thus obtained colonies, each strain was inoculated to a fresh liquid medium and cultured for 16 to 20 hours. Then an aliquot having a volume (10 to 50 appropriate to each strain was inoculated to a fresh liquid medium and cultured for 4 to 6 hours, followed by the measurement of the absorbance at 600 nm. After comparing the turbidity with McFarland #0.5, the resultant was diluted with a medium. Each strain was added to about 10^5 CFU/mL (final concentration). Each of the peptide solutions to be tested was diluted with MHB to obtain a solution of 128 μg/mL. […] As controls, tobramycin (TOB: aminoglucoside antibiotic), oxacillin (OX:β-lactam antibiotic), meropenem (MEPM: carbapenem antibiotic) and ciprofloxacin (new quinolone antibiotic) were used. […] To a 96-well microtiter plate, 0.1 mL of the inoculation solution and 0.1 mL of the peptide- or positive control-containing medium having the respective concentration were added, and cultured at 37° C. for 16 to 24 hours (or a time period suited for the growth of the respective strain). The well not containing the sample was used as a negative control. After the culturing, the growth was visually observed, and the minimum concentration at which the growth was inhibited was defined as the minimum growth inhibition concentration (MIC). The medium used in this test for bacteria was Mueller-Hinton broth. Independent experiments were carried out twice or more for each strain.

[2] = tested on: Pseudomonas aeruginosa ATCC 27853; test: microbe, parasite or virus in culture; type: cell-based
Method: as §1

[3] = tested on: Staphylococcus aureus ATCC29213; test: microbe, parasite or virus in culture; type: cell-based
Method: as §1

[4] = tested on: Staphylococcus epidermidis JCM 2414; test: microbe, parasite or virus in culture; type: cell-based
Method: as §1

[5] = tested on: Escherichia coli ATCC 25922; test: ATP Assay (viability at 3 hours), Table 6; type: cell-based; settings: 3 h, 5 μg/mL
Method: (§2) Bacteria (Escherichia coli ATCC 25922, Pseudomonas aeruginosa ATCC 27853, Staphylococcus aureus ATCC29213, and Staphylococcus epidermidis JCM 2414) were inoculated to Mueller-Hinton broth: MHB or LB medium, and cultured at a temperature and period suited for each strain. From the thus obtained colonies, each strain was inoculated to a fresh liquid medium and cultured for 16 to 20 hours. Then an aliquot having a volume (10 to 50 μL) appropriate to each strain was inoculated to a fresh liquid medium and cultured for 4 to 6 hours, followed by the measurement of the absorbance at 600 nm. After comparing the turbidity with McFarland #0.5, the resultant was diluted with a medium. Each strain was added to about 10^5 CFU/mL (final concentration).
(§3) Each of the peptide solutions to be tested was diluted with the medium to obtain a solution of 10 μg/mL. As positive controls, tobramycin (TOB), oxacillin (OX) and meropenem (MEPM) were used. By dilution with sterilized purified water to 1.0 mg/mL, positive control-containing media having concentrations of […], respectively for TOB; 0.5, 0.12 and 0.06 μg/mL, respectively, for OX; and 1.0, 0.25, 0.12, 0.06, 0.03 and 0.008 μg/mL respectively, for MEPM, were prepared. To a 96-well microtiter plate, 0.1 mL of the inoculation solution and 0.1 mL of the peptide- or positive control-containing medium having the respective concentration were added, and cultured at 37° C. for 3 hours. The well not containing the sample was used as a negative control. After the culturing, ATP was measured using BacTiter-Glo Microbial Cell Viability Assay kit of PROMEGA, and compared with that in the negative control to obtain a relative value which was defined as a viability. The antibacterial activity was evaluated based on the viability at 3 hours later using ATP as an index.
(§4) The medium used in this test for bacteria was Mueller-Hinton broth. Independent experiments were carried out twice for each strain.

[6] = tested on: Pseudomonas aeruginosa ATCC 27853; test: ATP Assay (viability at 3 hours), Table 6; type: cell-based; settings: 3 h, 5 μg/mL
Method: as §2, §3, §4

[7] = tested on: Staphylococcus aureus ATCC29213; test: ATP Assay (viability at 3 hours), Table 6; type: cell-based; settings: 3 h, 5 μg/mL
Method: as §2, §3, §4

[8] = tested on: Micrococcus luteus NBRC13867
[9] = tested on: Bacillus subtilis NBRC3134; settings: NBRC3134
[10] = tested on: Salmonella enteritidis IID 604; settings: IID 604
[11] = tested on: Salmonella typhimurium JCM1652; settings: JCM1652
[12] = tested on: Streptococcus pyogenes JCM5674
[13] = tested on: Acinetobacter baumanni JCM6841; settings: JCM6841
[14] = tested on: Bacteroides fragilis JCM 11019; settings: Table 4; two tests, first/second value where not identical
[15] = tested on: Fusobacterium nucleatum JCM 11025; settings: JCM 11025
[16] = tested on: Actinobacillus actinomycetemcomitans JCM2434
Fusarium solani JCM11383 = settings: JCM11383
[17] = tested on: Alternaria alternata JCM5800; settings: JCM5800
[18] = tested on: Trichophyton mentagrophytes NBRC6124; settings: NBRC6124
[19] = tested on: Trichophyton rubrum NBRC9185; settings: NBRC9185
Candida krusei NBRC1395 = settings: NBRC1395
[20] = tested on: Enterobacter aerogenes JCM 1235; test: microbe, parasite or virus in culture; type: cell-based; settings: Table 4; two tests, first/second value where not identical
Method: as §1

[21] = tested on: Klebsiella pneumoniae JCM 1662; test: microbe, parasite or virus in culture; type: cell-based
Method: as §1

[22] = tested on: Enterobacter cloacae JCM 1232; type: cell-based; settings: Table 4; two tests, first/second value where not identical
Method: as §1

[23] = tested on: Pseudomonas aeruginosa 1 (clinical strain); test: microbe, parasite or virus in culture; settings: Table 4; clinical strain; first/second value where not identical
Method: as §2, with “ATCC29213, Klebsiella pneumoniae JCM 1662, Enterobacter cloacae JCM 1232, Enterobacter aerogenes JCM 1235” for “ATCC29213,”, “50” for “50 μL)”
(§5) Further, the antibacterial activities against the clinical strains collected and isolated from infected patients were also examined. The tests were carried out for two methicillin-resistant Staphylococcus (MRSA) (MRSA (i) and (ii)), two methicillin-sensitive Staphylococcus (MSSA) (MSSA (i) and (ii)), five Pseudomonas aeruginosa, Pseudomonas aeruginosa 1, Pseudomonas aeruginosa 6, Pseudomonas aeruginosa 8. Pseudomonas aeruginosa 9 and Pseudomonas aeruginosa 12, totally 9 clinical strains. The MRSA and MSSA clinical strains were tested by the same method as Staphylococcus aureus ATCC29213, and Pseudomonas clinical strains were tested by the same method as Pseudomonas aeruginosa ATCC 27853.
(§6) Each of the peptide solutions to be tested was diluted with MHB to obtain a solution of 128 μg/mL. This solution was serially diluted with the medium to prepare peptide-containing media having concentrations of 128, 64, 32, 16, 8.0, 4.0 and 2.0 μg/mL respectively. […] By dilution with sterilized purified water to 1.0 mg/mL, positive control-containing media having concentrations of 16, 8, 4, 2, 1.0, 0.25, 0.12 and 0.06 μg/mL, respectively for TOB; 0.5, 0.12 and 0.06 μg/mL, respectively, for OX; and 16, 8, 4, 2, 1.0, 0.25, 0.12, 0.06, 0.06, 0.03 and 0.008 μg/mL, respectively, for MEPM, were prepared.
(§7) To a 96-well microtiter plate, 0.1 mL of the inoculation solution and 0.1 mL of the peptide- or positive control-containing medium having the respective concentration were added, and cultured at 37° C. for 16 to 24 hours (or a time period suited for the growth of the respective strain). The well not containing the sample was used as a negative control. After the culturing, the growth was visually observed, and the minimum concentration at which the growth was inhibited was defined as the minimum growth inhibition concentration (MIC).
(§8) The medium used in this test for bacteria was Mueller-Hinton broth. Independent experiments were carried out twice or more for each strain.

[24] = tested on: Pseudomonas aeruginosa 12 (clinical strain); test: microbe, parasite or virus in culture
Method: as §2, with “ATCC29213, Klebsiella pneumoniae JCM 1662, Enterobacter cloacae JCM 1232, Enterobacter aerogenes JCM 1235” for “ATCC29213,”, “50” for “50 μL)”
as §5, §6, §7, §8

[25] = tested on: Pseudomonas aeruginosa 6 (clinical strain); test: microbe, parasite or virus in culture; settings: Table 4; clinical strain; first/second value where not identical
Method: as §2, with “ATCC29213, Klebsiella pneumoniae JCM 1662, Enterobacter cloacae JCM 1232, Enterobacter aerogenes JCM 1235” for “ATCC29213,”, “50” for “50 μL)”
as §5, §6, §7, §8

[26] = tested on: Pseudomonas aeruginosa 9 (clinical strain); test: microbe, parasite or virus in culture; settings: Table 4; clinical strain; first/second value where not identical
Method: as §2, with “ATCC29213, Klebsiella pneumoniae JCM 1662, Enterobacter cloacae JCM 1232, Enterobacter aerogenes JCM 1235” for “ATCC29213,”, “50” for “50 μL)”
as §5, §6, §7, §8

[27] = tested on: Pseudomonas aeruginosa 8 (clinical strain); settings: Table 4; clinical strain; first/second value where not identical
Method: as §2, with “ATCC29213, Klebsiella pneumoniae JCM 1662, Enterobacter cloacae JCM 1232, Enterobacter aerogenes JCM 1235” for “ATCC29213,”, “50” for “50 μL)”
as §5, §6, §7, §8

[28] = tested on: Aspergillus niger NBRC 9455; settings: Table 4; two tests, first/second value where not identical
[29] = tested on: Cryptococcus neoformans IFM 46660
[30] = tested on: Rhizopus oryzae NBRC 31005; settings: NBRC 31005
[31] = Table 4, two tests, first/second value where not identical
[32] = Table 4, clinical strain, first/second value where not identical

Substance | MIC Escherichia coli [1, 31] | MIC Pseudomonas aeruginosa ([2]; ATCC 27853) | MIC Staphylococcus aureus ([3]; ATCC29213) | MIC Staphylococcus epidermidis ([4]; JCM 2414) | Escherichia coli ATP (viability, relative value to negative control) [5] | Pseudomonas aeruginosa ATP (viability, relative value to negative control) [6] | Staphylococcus aureus ATP (viability, relative value to negative control) [7] | MIC Enterobacter aerogenes [20] | MIC Enterobacter cloacae [22] | MIC Pseudomonas aeruginosa 1 [23] | MIC Pseudomonas aeruginosa 12 [24, 32] | MIC Pseudomonas aeruginosa 6 [25] | MIC Pseudomonas aeruginosa 9 [26] | MIC Pseudomonas aeruginosa 8 [27] | MIC Aspergillus niger [28] | MIC Rhizopus oryzae [30] | MIC Klebsiella pneumoniae [21, 31] | MIC Cryptococcus neoformans ([29]; IFM 46660) | also measured
Ac-GRLKRMGERLKRKIQKWIRW-NH2 [SRP-19] | 8/16 | 8 µg/mL | 8 µg/mL | 8 µg/mL | 2.9 | 1.6 | 2.1 |  |  |  |  |  |  |  |  |  |  |  | MIC Micrococcus luteus [8]: 2 µg/mL; MIC Bacillus subtilis [9]: 2 µg/mL; MIC Salmonella Enteritidis [10]: 4 µg/mL; MIC Salmonella Typhimurium [11]: 4 µg/mL; MIC Streptococcus pyogenes [12]: 16 µg/mL; MIC Acinetobacter baumanni [13]: 32 µg/mL; MIC Bacteroides fragilis [14]: 16/8; MIC Fusobacterium nucleatum [15]: 4 µg/mL; MIC Actinobacillus actinomycetemcomitans [16]: 64 µg/mL; MIC Fusarium solani (Fusarium solani JCM11383): 16 µg/mL; MIC Alternaria alternata [17]: 64 µg/mL; MIC Trichophyton mentagrophytes [18]: 32 µg/mL; MIC Trichophyton rubrum [19]: 64 µg/mL; MIC Candida krusei (Candida krusei NBRC1395): 16 µg/mL
MLKLIFLHRLKRMRKRLKRKLR-NH2 [SRP-9] |  | 16 µg/mL |  |  | 2.6 | 0.8 | 0.2 | 16/64 | 16/64 | 16/32 | 16/32 | 16/64 | 32/128 | 8/32 | 16/32 | 8 µg/mL |  |  | MIC Escherichia coli ([1]; ATCC 25922): 32 µg/mL; MIC Klebsiella pneumoniae ([21]; JCM 1662): 64 µg/mL; MIC Staphylococcus aureus [3, 31]: 16/32; MIC Staphylococcus epidermidis [4, 31]: 8/32; MIC Cryptococcus neoformans [29, 31]: 1/2
MLKLIFLHRLKRMRKRLKRK-NH2 [SRP-10] | 32/64 |  | 16 µg/mL | 8 µg/mL | 2.4 | 0.9 | 0.2 | 16/128 | 64/128 | 16/64 | 16/32 | 32/128 | 64/128 | 64/128 | 8/16 | 8 µg/mL | 64/128 | 2 µg/mL | MIC Pseudomonas aeruginosa [2, 31]: 16/32
LKLIFLHRLKRMRKRLKRKL-NH2 [SRP-11] | 32/64 | 16 µg/mL | 16 µg/mL | 8 µg/mL | 3.8 | 0.8 | 0.3 | 32/64 | 128< mg/mL | 16/32 |  | 16/32 | 16/32 | 16/32 | 8/32 | 8 µg/mL | 64/128 | 2 µg/mL | MIC Pseudomonas aeruginosa 12 ([24]; 12 (clinical strain)): 16 µg/mL
